Measurements from patent US8088799B2, “Pharmaceutical composition comprising a sodium hydrogen exchange inhibitor and an angiotensin converting enzyme inhibitor” (Sanofi-Aventis Deutschland GmbH, priority 2002, dated 2012).
“Also recorded” adds a separate entry of the source.

What was measured:
[1] = system: hearts of old spontaneously hypertensive rats; experiment: Interim analysis 3 months after start of treatment: heart function, myocardial fibrosis (Hyp/Arg), heart weight; assay type: in vivo, rat; conditions: 7 animals per group; for Force of myocardial contraction / function of the heart: compared with placebo control hearts, 3 months after start of treatment
Protocol: (§1) The pharmacological model of spontaneously hypertensive rat is generally accepted to be representative of human essential hypertony. In each experimental group initially 27 18-months old rats were employed. 3 months after the start of treatment, when the number of surviving animals in the placebo control group was only 7, an interim analysis was carried out on 7 animals from each group.
(§2) In the experiment old hypertensive rats (age: 18 months) were treated with the NHE inhibitor cariporide or with a subthreshold dose of ramipril with no lowering effect on the blood pressure or with a combination of both substances. For each of the four treatments 27 18-month old rats were employed. A daily dose of 400 mg of cariporide per kg body weight (0.6% cariporide in standard rat feed) and 10 μg ramipril per kg body weight (in the drinking water) were given. 3 months after the start of treatment, when the number of surviving animals in the placebo control group was only 7, an interim analysis was carried out on 7 animals from each group. The remaining, still living rats per group were continuously treated as mentioned above since they were 18 months old.
As mentioned above, 3 months after the start of treatment, when the number of surviving animals in the placebo control group was only 7, an interim analysis was carried out on 7 animals from each group. The weight of the complete heart and the weight of the left and right ventricle were measured. Just so, the molar ratio of hydroxyproline and ariginine in the heart tissues was measured (measured via HPLC), which is a marker for the myocardial fibrosis. […] Hyp/Arg is the ratio of hydroxyproline to arginine and is regarded as a fibrosis marker.
These effects are also reflected in the weights of the hearts (FIG. 3).

[2] = system: spontaneously hypertensive rats (SHR); experiment: Survival rate of old spontaneously hypertensive rats under late-onset treatment; assay type: in vivo, rat; design: key to Holm-adjusted log rank test of survival vs. Cariporide / Holm-adjusted log rank test of survival vs. Placebo: * indicates significant difference; n.s. = not significant; conditions: for Median survival time: time from start of treatment (18th month of life) at which survival rate reaches 50%, Kaplan-Meier estimate
Protocol: as §1
The effect of a ramipril and cariporide combination product on the survival rate of rats with genetically related hypertension was investigated.
as §2
Thus, in the determination of the survival time […] 18-month old rats were employed in each experimental group (table 1).
There are evidently distinct differences between placebo and product groups on the one hand and between the individual products and the combination after the experiment had lasted only 3-4 months.
The statistical analysis was carried out essentially using the SAS/STAT procedure LIFETEST [SAS Institute Inc. (1989): SAS/STAT User's Guide, Version 6, 4th Edition, Volume 2, Cary, N.C.; SAS Institute Inc.]. The log rank tests were carried out pairwise on the experimental groups and adjusted to obtain a multiple significance level of 5% according to Holm [S. Holm (1979): A Simple Sequentally Rejective Multiple Test Procedure; Scand. J. Statist.; 6, pp 65-70].

old normotensive rats = conditions: from WO 00/38661; cited from earlier work
[3] = system: spontaneously hypertensive rats; conditions: known for some time; cited from earlier work
[4] = age 18 months (start of treatment), 20 rats per group, cariporide 400 mg/kg/day in feed, ramipril 10 μg/kg/day in drinking water
[5] = age 19 months, of 20 rats per group
[6] = age 20 months, of 20 rats per group
[7] = age 21 months, of 20 rats per group
[8] = age 22 months, of 20 rats per group
[9] = age 23 months, of 20 rats per group
[10] = age 24 months, of 20 rats per group
[11] = age 25 months, of 20 rats per group
[12] = age 26 months, of 20 rats per group
[13] = age 27 months, of 20 rats per group
[14] = age 28 months, of 20 rats per group
[15] = age 29 months, of 20 rats per group
[16] = pairwise comparison, multiple significance level of 5%

| Structure (SMILES) | Force of myocardial contraction / function of the heart [1] | Number of surviving rats [2, 4] | Number of surviving rats [2, 5] | Number of surviving rats [2, 6] | Number of surviving rats [2, 7] | Number of surviving rats [2, 8] | Number of surviving rats [2, 9] | Number of surviving rats [2, 10] | Number of surviving rats [2, 11] | Number of surviving rats [2, 12] | Number of surviving rats [2, 13] | Number of surviving rats [2, 14] | Number of surviving rats [2, 15] | Holm-adjusted log rank test of survival vs. Placebo [2, 16] | Survival rate compared with the placebo treatment ([2]; result in words) | Median survival time [2] [months] | also measured |
| --- | --- | --- | --- | --- | --- | --- | --- | --- | --- | --- | --- | --- | --- | --- | --- | --- | --- |
| CC(C)c1ccc(C(=O)N=C(N)N)cc1S(C)(=O)=O.CS(=O)(=O)O [Cariporide, cariporide] | significantly improved the function of the heart | 20 | 18 | 16 | 12 | 8 | 7 | 7 | 5 | 0 | 0 | 0 | 0 | * | statistically significant improvement in the survival rate | 4.0 | Weight of the hearts ([1]; 3 months after start of late treatment): significantly smaller weights of the hearts; Myocardial fibrosis (Hyp/Arg ratio of hydroxyproline to arginine) ([1]; 3 months after start of late treatment, HPLC): significantly reduced; also recorded: possible for a preexisting fibrosis to be reduced; Difference in survival rates between cariporide and ramipril ([2]; result in words, chosen significance level): No significant differences |
| CCOC(=O)[C@H](CCc1ccccc1)N[C@@H](C)C(=O)N1[C@H](C(=O)O)C[C@@H]2CCC[C@@H]21 [Ramipril, ramipril] | significant reduction in the force of myocardial contraction | 20 | 18 | 15 | 11 | 9 | 4 | 0 | 0 | 0 | 0 | 0 | 0 | * | statistically significant improvement in the survival rate | 4.0 | Protective effect on pathological age-related organ changes (old normotensive rats): no protective effect at all; Life span of spontaneously hypertensive rats [3]: significantly prolongs the life span; Holm-adjusted log rank test of survival vs. Cariporide [2, 16]: n.s. |
